# Read-outs that look alike come from different tables or passages of the source.
# Assays:
# HE = experiment: clinical studies of baricitinib for treating HE (Example 2, with Davos Biosciences GmbH); assay type: in vivo, human; conditions: daily dosage of 4 mg
# patients with HE = conditions: cited from earlier work; for HE severity after treatment / HECSI score after treatment: after 16 weeks; for HE severity after treatment: 'severe' at start
structure (smiles),measurement,setting,value
"CCS(=O)(=O)N1CC(CC#N)(n2cc(-c3ncnc4[nH]ccc34)cn2)C1 [baricitinib, {1-(ethylsulfonyl)-3-[4-(7H-pyrrolo[2,3-d]pyrimidin-4-yl)-1H-pyrazol-1-yl]azetidin-3-yl}acetonitrile]",efficacy in HE (photographic images and additional clinical data),HE,effective
same,treatment outcome of two patients with HE,patients with HE; 4 mg tablet once per day,successfully treated
same,HE severity after treatment,"patients with HE; case 1: severe hyperkeratotic HE, 4 mg once per day",almost clear
same,HECSI score after treatment,"patients with HE; case 1, 4 mg once per day, HECSI 55 (severe) at start",4
same,tolerability / side effects,"patients with HE; case 1, 4 mg once per day",no side effects occurred
same,quality of life (QOLHEQ) after treatment,"patients with HE; case 1, improved from ""strongly impaired""",not at all impaired
same,HE severity after treatment,"patients with HE; case 2: severe AD with severe atopic HE, 4 mg per day tapered to 2 mg per day at 12 weeks",almost clear
same,HECSI score after treatment,"patients with HE; case 2, 4 mg per day tapered to 2 mg at 12 weeks, HECSI 47 (severe) at start",8
same,adverse event leading to discontinuation,"patients with HE; case 2, at 16 weeks",bacterial corneal ulcer
same,quality of life (QOLHEQ) after treatment,"patients with HE; case 2, improved from ""moderately impaired""",not at all impaired
